From patent US20260210939A1, “MODIFIED OLFACTORY RECEPTORS” (GIVAUDAN SA, priority 2022, published 2026) come the findings set out here.

By EC50 is commonly meant the concentration that produces a half-maximal response.

Data set [1] addresses T1, OR1N2 (Homo sapiens, UniProt Q8NGR9, T287M/V230G/W23R).
T1 construct: Improved functional expression of modified OR-genes containing the truncated, optimized C-terminus; expressed in transfected cells; host or cells: HEK293T stably expressing human RTP1S(V227I) and RTP2(L220R)
T1 sequence (Q8NGR9 with tags, fused parts or gaps W23R/V230G/T287M): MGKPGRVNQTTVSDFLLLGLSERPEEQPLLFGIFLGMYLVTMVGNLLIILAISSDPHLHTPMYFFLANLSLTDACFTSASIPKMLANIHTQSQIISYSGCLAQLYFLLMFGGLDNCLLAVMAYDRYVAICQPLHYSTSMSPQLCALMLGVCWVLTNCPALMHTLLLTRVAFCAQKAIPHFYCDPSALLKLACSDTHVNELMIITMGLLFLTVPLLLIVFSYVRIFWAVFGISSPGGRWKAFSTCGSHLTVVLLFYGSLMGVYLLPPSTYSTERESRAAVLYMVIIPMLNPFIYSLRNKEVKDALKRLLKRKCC
The data set can be described thus: CRE-luciferase assay, HEK293T cells expressing OR1N2 (wild-type / modified C-terminus). The class given is cell-based.

For data set [2], the target named is T2, OR5A1 (Homo sapiens, UniProt Q8NGJ0, I300V).
T2 construct: Improved functional expression of modified OR-genes containing the truncated, optimized C-terminus; expressed in transfected cells; host or cells: HEK293T stably expressing human RTP1S(V227I) and RTP2(L220R)
T2 sequence (Q8NGJ0 with tags, fused parts or gaps I300V): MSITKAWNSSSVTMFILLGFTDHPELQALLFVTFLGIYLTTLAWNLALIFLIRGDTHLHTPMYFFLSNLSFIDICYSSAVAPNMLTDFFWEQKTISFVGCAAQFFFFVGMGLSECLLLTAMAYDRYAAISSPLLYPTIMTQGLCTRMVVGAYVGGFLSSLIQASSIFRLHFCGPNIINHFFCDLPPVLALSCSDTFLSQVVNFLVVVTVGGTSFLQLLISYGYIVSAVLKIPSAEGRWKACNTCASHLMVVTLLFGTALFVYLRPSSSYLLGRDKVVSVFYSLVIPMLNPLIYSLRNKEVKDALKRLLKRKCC
Put plainly: CRE-luciferase assay, HEK293T cells expressing OR5A1 (wild-type / modified C-terminus). The class given is cell-based.

Data set [3] concerns the target T3, OR10H5 (Homo sapiens, UniProt Q8NGA6).
T3 construct: Improved functional expression of modified OR-genes containing the truncated, optimized C-terminus; expressed in transfected cells; host or cells: HEK293T stably expressing human RTP1S(V227I) and RTP2(L220R)
T3 sequence (Q8NGA6 with tags, fused parts or gaps): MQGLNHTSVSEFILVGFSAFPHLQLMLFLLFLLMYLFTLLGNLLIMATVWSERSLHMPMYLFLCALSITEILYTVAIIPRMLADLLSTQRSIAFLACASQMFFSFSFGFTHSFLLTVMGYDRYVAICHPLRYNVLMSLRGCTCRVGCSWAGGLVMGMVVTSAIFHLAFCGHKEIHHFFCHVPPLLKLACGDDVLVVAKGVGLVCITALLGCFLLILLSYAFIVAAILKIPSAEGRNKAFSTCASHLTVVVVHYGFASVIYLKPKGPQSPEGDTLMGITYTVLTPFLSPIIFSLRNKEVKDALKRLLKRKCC
The data set can be described thus: CRE-luciferase assay, HEK293T cells expressing OR10H5 (wild-type / modified C-terminus). The class given is cell-based. The text has this:
All tested receptors of Table 1 gave improved functional expression when the wild-type C-terminal domain was replaced with SEQ ID NO: 86. This functional expression was further improved when SEQ ID NO:86 was replaced with SEQ ID NO: 221 as shown for OR7C1 in Table 8 and for OR5B12 in Table 9. This additive improvement was further tested with OR10H5 (Table 18) and OR7A17 (Table 19). […] The full DNA sequences encoding the modified receptors are SEQ ID NO: 684 for OR10H5 and SEQ ID NO: 611 for OR7A17.

In data set [4] the target is T4, OR10A3 (Homo sapiens, UniProt P58181).
T4 construct: Class II OR library members with modified C-terminal domains; expressed in transfected cells
T4 sequence (P58181 with tags, fused parts or gaps): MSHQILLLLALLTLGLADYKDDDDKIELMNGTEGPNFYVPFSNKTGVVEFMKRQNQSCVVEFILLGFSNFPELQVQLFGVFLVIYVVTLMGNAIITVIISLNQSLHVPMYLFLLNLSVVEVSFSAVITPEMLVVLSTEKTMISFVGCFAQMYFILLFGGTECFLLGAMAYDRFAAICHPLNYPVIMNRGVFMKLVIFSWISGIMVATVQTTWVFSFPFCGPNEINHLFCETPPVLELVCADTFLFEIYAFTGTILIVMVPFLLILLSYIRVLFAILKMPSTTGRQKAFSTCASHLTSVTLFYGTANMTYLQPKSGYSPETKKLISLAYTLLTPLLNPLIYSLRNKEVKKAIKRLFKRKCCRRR
The data set can be described thus: Dose-response test of single lactones on OR10A3 (luciferase). The data set is classed as cell-based. The procedure:
(§1) In a subsequent de-convultion experiment, the single ingredients were tested in a dose-response test on all the identified OR. […] Thus, OR2AP1 and OR2J2 are particularly strongly activated by the long-chain dodecalactone gamma, while OR10A3 is very sensitive to several longer chain lactones. […] Among the five OR, OR10A3 is the most sensitive.

The target of data set [5] is T5, OR10A6(A117V, V140G, L287P) (Homo sapiens, UniProt Q8NH74, A117V/L287P/V140G).
T5 construct: expressed in transfected cells; transient transfection of pcDNA3.1(+) OR plasmid
T5 sequence (Q8NH74 with tags, fused parts or gaps A117V/V140G/L287P limits assumed): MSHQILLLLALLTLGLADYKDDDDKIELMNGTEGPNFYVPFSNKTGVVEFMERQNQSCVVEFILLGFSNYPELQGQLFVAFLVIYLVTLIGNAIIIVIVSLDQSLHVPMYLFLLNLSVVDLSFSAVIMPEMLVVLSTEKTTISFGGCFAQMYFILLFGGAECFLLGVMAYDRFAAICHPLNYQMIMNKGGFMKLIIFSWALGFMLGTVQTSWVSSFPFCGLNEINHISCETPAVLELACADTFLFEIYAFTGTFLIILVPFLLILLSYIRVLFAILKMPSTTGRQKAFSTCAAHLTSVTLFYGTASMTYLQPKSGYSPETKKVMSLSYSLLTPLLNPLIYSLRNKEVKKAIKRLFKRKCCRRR
The data set can be described thus: Dose-response test of single lactones on OR10A6(A117V, V140G, L287P). The data set is classed as cell-based. The procedure: as §1

Data set [6] addresses T6, OR10J1(M51I, I92M) (Homo sapiens, UniProt P30954, I103M/M62I).
T6 construct: expressed in transfected cells; transient transfection of pcDNA3.1(+) OR plasmid
T6 sequence (P30954 with tags, fused parts or gaps M62I/I103M): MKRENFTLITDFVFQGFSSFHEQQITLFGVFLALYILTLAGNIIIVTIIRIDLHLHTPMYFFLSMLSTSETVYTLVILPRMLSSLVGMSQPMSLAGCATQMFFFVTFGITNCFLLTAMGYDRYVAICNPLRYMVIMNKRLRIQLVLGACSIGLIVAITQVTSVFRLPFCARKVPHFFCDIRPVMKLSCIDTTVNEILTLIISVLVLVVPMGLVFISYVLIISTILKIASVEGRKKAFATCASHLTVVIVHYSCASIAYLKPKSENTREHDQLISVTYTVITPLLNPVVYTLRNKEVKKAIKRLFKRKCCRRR
Put plainly: Dose-response test of single lactones on OR10J1(M51I, I92M). The class given is cell-based. The procedure: as §1

Data set [7] concerns the target T7, OR2J2 (Homo sapiens, UniProt O76002, A146V/A218T/A302I/G300K/H297E/H74Y).
T7 construct: expressed in transfected cells; transient transfection of pcDNA3.1(+) OR plasmid
T7 sequence (O76002 with tags, fused parts or gaps H74Y/A146V/A218T/H297E/G300K/A302I limits assumed): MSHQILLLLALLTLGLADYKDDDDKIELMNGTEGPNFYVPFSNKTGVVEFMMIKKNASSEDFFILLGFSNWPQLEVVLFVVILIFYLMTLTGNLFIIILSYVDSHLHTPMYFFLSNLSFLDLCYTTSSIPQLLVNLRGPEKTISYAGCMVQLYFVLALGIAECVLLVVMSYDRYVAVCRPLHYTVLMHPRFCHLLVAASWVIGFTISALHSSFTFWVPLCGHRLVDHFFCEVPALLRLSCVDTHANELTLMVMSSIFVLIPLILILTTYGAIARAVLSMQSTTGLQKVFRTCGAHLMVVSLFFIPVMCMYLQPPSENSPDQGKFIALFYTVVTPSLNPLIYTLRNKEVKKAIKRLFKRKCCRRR
The data set can be described thus: Dose-response test of single lactones on OR2J2. The data set is classed as cell-based. The procedure:
as §1

Data set [8] deals with T8, OR2T11 (Homo sapiens, UniProt Q8NH01, C119R).
T8 construct: Improved functional expression of modified OR-genes containing the truncated, optimized C-terminus; expressed in transfected cells; host or cells: HEK293T stably expressing human RTP1S(V227I) and RTP2(L220R)
T8 sequence (Q8NH01 with tags, fused parts or gaps C119R): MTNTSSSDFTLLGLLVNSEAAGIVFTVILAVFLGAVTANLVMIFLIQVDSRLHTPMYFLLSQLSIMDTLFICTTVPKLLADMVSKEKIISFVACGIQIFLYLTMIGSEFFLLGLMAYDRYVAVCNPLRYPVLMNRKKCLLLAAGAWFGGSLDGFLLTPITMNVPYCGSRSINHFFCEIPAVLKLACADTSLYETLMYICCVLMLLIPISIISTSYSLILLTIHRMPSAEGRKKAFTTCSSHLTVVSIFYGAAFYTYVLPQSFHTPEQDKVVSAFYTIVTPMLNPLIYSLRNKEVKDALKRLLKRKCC
Put plainly: CRE-luciferase assay, HEK293T cells expressing OR2T11 (wild-type / modified C-terminus). The class given is cell-based.

Data set [9] deals with T9, OR2T4 (Homo sapiens, UniProt Q8NH00, D328E/G331D/M330K).
T9 sequence (Q8NH00 with tags, fused parts or gaps D328E/M330K/G331D): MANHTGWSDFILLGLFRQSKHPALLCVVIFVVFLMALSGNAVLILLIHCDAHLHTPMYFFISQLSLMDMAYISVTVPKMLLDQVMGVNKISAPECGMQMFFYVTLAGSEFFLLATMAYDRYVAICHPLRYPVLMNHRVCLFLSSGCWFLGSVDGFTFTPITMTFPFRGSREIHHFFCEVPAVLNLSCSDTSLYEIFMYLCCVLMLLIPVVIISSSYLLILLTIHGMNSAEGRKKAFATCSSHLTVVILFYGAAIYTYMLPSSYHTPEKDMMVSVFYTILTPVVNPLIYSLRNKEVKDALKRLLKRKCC
The conditions noted are these: OR2T4 with optimized C-terminus SEQ ID NO: 86.

Marks after values point to notes of the source that are not given here. Some results are limits rather than exact numbers.

In the case of `O=C1CCCCCCCC=CCCCCCCO1` [Ambrettolide], the Comments on efficacy in data set [1] worked out at 1.5. For the same compound, the “Detection threshold; concentration for 2-fold induction” value in data set [1] (changed C-term. SEQ ID NO: 86) was 0.26 µM; in data set [1] (wild-type), 1.33 µM. Moreover, the Fold-improvement potency in data set [1] (changed C-term. vs wild-type) amounted to 1.5. Moreover, the Fold-improvement threshold in data set [1] (changed C-term. vs wild-type) is listed as 5.2.
For `CC(=O)/C=C/C1=C(C)CCCC1(C)C` [Beta-ionone], in data set [2], the Comments on efficacy is 4-fold lower. Further, in data set [2] (changed C-term. SEQ ID NO: 86), the “Detection threshold; concentration for 2-fold induction” value is 3.2 µM. Besides, in data set [2] (changed C-term. vs wild-type), the Fold-improvement potency worked out at 1.8 and the Fold-improvement threshold worked out at 5.9. Besides, in [2] (wild-type), the “Detection threshold; concentration for 2-fold induction” value worked out at 19.1 µM and the half-maximal effective concentration (EC50) stood at 5.5 µM.
Turning to `Cc1ccc2c(c1)OCC(=O)CO2` [Calone], in data set [3], the Comments on efficacy is 3-fold lower. In addition, the “Detection threshold; concentration for 2-fold induction” value was 24.3 µM in data set [3] (changed C-term. SEQ ID NO: 86) and 60.1 µM in [3] (wild-type). Also, in data set [3] (changed C-term. vs wild-type), the Fold-improvement threshold is 2.5. Moreover, the Fold-improvement potency in data set [3] (changed C-term. vs wild-type, higher EC50 due to much higher efficacy of optimized C-terminus) is 0.7 *.
Take `CCCCCC1CCCC(=O)O1` (stereo not shown) [Decalactone delta]: the “EC10, concentration for 10-fold OR activation” value in data set [4] is reported as 2.10 μM. Moreover, the “EC2 (concentration for 2-fold luciferase induction)” value is 5.31 µM in data set [5], 31.73 µM in [6] and 98.89 µM in data set [7].
Turning to `C=CCSSCC=C` [Diallyl disulfide], the Comments on efficacy result in data set [8] is “No induction”. In addition, in data set [8] (changed C-term. SEQ ID NO: 86), the “Detection threshold; concentration for 2-fold induction” value turned out to be 2.03 µM and the EC50 was 6.51 µM. In addition, in [8] (changed C-term. vs wild-type), the Fold-improvement potency is >>40 and the Fold-improvement threshold is on record as above 100. In addition, in [8] (wild-type), the “Detection threshold; concentration for 2-fold induction” value was above 200 µM and the EC50 was above 200 µM. In addition, the “ligand identification in sulfur odorant screen” value in data set [9] is recorded as “good ligands”.
